The test system of one assay is L5178Y cells. As to the kind of experiment: Inhibitory effect upon the multiplication of tumor cells (L5178Y). Type of assay: cell-based. As to conditions: Mus musculus, RPMI1640 + 10% fetal calf serum, 48 hours, 37° C., concentration giving cell count of 50% of control, read-out: ED50 (the source's name). As to the method: Inhibitory effect upon the multiplication of tumor cells
The inhibitory effects of compound (I) upon the multiplication of cells were detected using L5178Y cells (tumor cell) in RPMI1640 medium+10% fetal calf serum for 48 hours at 37° C.
The result was expressed in the concentration of the drug giving a cell count of 50% (ED50) with the average number of cells for the control (not medicated) group on the 2nd day being taken as 100%.

The subject of a further assay is Ehlrich carcinoma cells. Put plainly: Growth inhibition of transplanted Ehrlich carcinoma in mice (Experimental Example 1 repeated). Type of assay: in vivo, mouse. As to conditions: mice with Ehrlich carcinoma; as Experimental Example 1: 0.5 mg/kg i.p. once daily for 20 days; day 35. As to the method: (§1) One×10^6 Sarcoma 180 cells were subcutaneously transplanted into the right groin of an ICR mouse weighing about 20 grams and starting 24 hours after transplantation, 0.5 mg/kg of the compound of Example 1 in distilled water for injection was intraperitoneally administered once daily for 20 consecutive days. On day 35 after transplantation, the tumorous node was incised, weighed and compared with the specimen of the control (without medication) group. The percent inhibition was 58% relative to the control.
The experiment described in Experimental Example 1 was repeated except that mice transplanted with Ehlrich carcinoma cells were employed.

A further assay concerns Sarcoma 180. As to the kind of experiment: Growth inhibition of subcutaneously transplanted Sarcoma 180 in ICR mouse (tumor weight). Type of assay: in vivo. As to conditions: 1×10^6 cells s.c., 0.5 mg/kg i.p. once daily for 20 consecutive days from 24 h, day 35. As to the method:
as §1

The values that follow come from US4435569A, “5-[Substituted amino methyl]pyrrolo[2,3-d]pyrimidine-4-one” (Takeda Chemical Industries, Ltd., priority 1981, dated 1984).

Counter-ions that a name gives are not always drawn.

Take `Nc1nc2[nH]cc(CNCc3ccccc3)c2c(=O)[nH]1` [Example 4, 2-amino-5-benzylaminomethylpyrrolo[2,3-d]pyrimidin-4-one]: the IC50 in the assay on L5178Y cells was 30 µg/mL. The same measure, in the same setting: as for `Nc1nc2[nH]cc(CNC3CCCC3)c2c(=O)[nH]1` [Example 2, 2-amino-5-cyclopentylaminomethylpyrrolo[2,3-d]pyrimidin-4-one(dihydrochloride)], the figure is 40 µg/mL. On to `CCCNCc1c[nH]c2nc(N)[nH]c(=O)c12` [Example 1, 2-amino-5-propylaminomethylpyrrolo[2,3-d]pyrimidin-4-one (dihydrochloride)], for which, in the assay with Ehlrich carcinoma cells, the “percent inhibition rate (tumor weight relative to control)” value came to 75%. Also, the “percent inhibition (tumor weight relative to control)” value in the assay with Sarcoma 180 was determined as 58%. `Nc1nc2[nH]cc(CN[C@H]3C=C[C@H](O)[C@@H]3O)c2c(=O)[nH]1` [Q base, reference compound]: in the assay with L5178Y cells, the IC50 is above 200 µg/mL. The same measure, in the same setting: as for `Nc1nc2[nH]cc(CN3CCCCC3)c2c(=O)[nH]1` [Example 3, 2-amino-5-piperidinomethylpyrrolo[2,3-d]pyrimidin-4-one (dihydrochloride)], the figure is 120 µg/mL.
